Assay results taken from patent US11766468B2, “Method of treating prostate cancer with GnRH antagonist” (priority 2012, dated 2023).
Values joined by “and” are separate entries in the source; they are usually repeats but may differ in a detail not shown here. Equal values may be shown once. Marks after values point to notes of the source that are not given here. Square brackets hold non-standard residues; d marks the D form. Peptide text beside a SMILES is read from it. * marks the point of attachment. dPhe(4-NHCONH2) = NC(=O)Nc1ccc(C[C@@H](N)C(=O)O)cc1; Dihydroorotyl(S) = O=C1C[C@@H](C(=O)*)NC(=O)N1; dPhe(4-Cl) = N[C@H](Cc1ccc(Cl)cc1)C(=O)O; Phe(4-NH2) = Nc1ccc(C[C@H](N)C(=O)O)cc1; d2Nal = N[C@H](Cc1ccc2ccccc2c1)C(=O)O; Lys(iPr) = CC(C)NCCCC[C@H](N)C(=O)O; d3Pal = N[C@H](Cc1cccnc1)C(=O)O

Assay: CS21 safety: treatment-emergent adverse events (MedDRA SOC/PT), crude incidence, also by subgroup
Format: in vivo
Protocol: The safety variables for this study were assessed on the following: the frequency and severity of adverse events (AEs); the presence of clinically significant changes in laboratory parameters (clinical chemistry, hematology and urinalysis); changes in electrocardiograms (ECGs) and vital signs; changes detected by physical examination; and body weight.
An AE was therefore any unfavorable or unintended sign (including an abnormal laboratory finding), symptom or disease temporally associated with the use of the product, whether or not related to the IMP.
An adverse drug reaction (ADR) was defined as an AE evaluated by the investigator as being probably or possibly related to treatment with the IMP.
AEs were graded according to the National Cancer Institute (NCI) Common Terminology Criteria for Adverse Events (CTCAE). In accordance with the CTCAE criteria, AEs were rated on a five-point scale corresponding to mild, moderate, severe, life-threatening or disabling and death. For those AEs not described in the CTCAE, a separate five-point rating scale was used for rating of the intensity of AEs as follows below:
Safety parameters were evaluated for all patients included in the ITT analysis set, comprising all 610 randomized patients who received at least one dose of study medication. All safety tables include four columns: the three treatment groups described separately, and the pooled degarelix group.
Adverse events were regarded as ‘treatment-emergent’ if they occurred in the time interval from initial dosing to end-of-study. Adverse events were considered ‘pre-treatment’ if they occurred between screening and the initial injections of IMP. As described above, all AEs were classified according to MedDRA (version 10.0) system organ class (SOC), sorted alphabetically, and by preferred term (PT), in decreasing frequency of occurrence. Treatment-emergent AEs were expressed in terms of intensity (using NCI CTCAE) and relationship to study drug.
Using the results from the summary of clinical efficacy (SCE) and summary of clinical safety (SCS) findings, different patient subgroups were analyzed. Subgroup distinguishers included race (white, black, and other), age (<65 years, […], and >75 years), weight (<70 kg, ≥70−<90 kg, and ≥90 kg), body mass index (BMI) (≤20, >20 to 30, and >30 kg/m^2)), region (North-America, Western Europe, Central and Eastern Europe and Other), and stage of prostate cancer (e.g., localized, locally advanced, and metastatic).

[1] = degarelix 240/160 mg, listed as degarelix
[2] = degarelix Total (pooled), leuprolide 7.5 mg
[3] = degarelix Total (pooled), leuprolide 7.5 mg, listed as degarelix
[4] = degarelix pooled, LUPRON DEPOT 7.5 mg
[5] = degarelix pooled, LUPRON DEPOT 7.5 mg, listed as degarelix
[6] = pooled degarelix, leuprolide 7.5 mg

## CC(=O)N[C@H](Cc1ccc2ccccc2c1)C(=O)N[C@H](Cc1ccc(Cl)cc1)C(=O)N[C@H](Cc1cccnc1)C(=O)N[C@@H](CO)C(=O)N[C@@H](Cc1ccc(NC(=O)[C@@H]2CC(=O)NC(=O)N2)cc1)C(=O)N[C@H](Cc1ccc(NC(N)=O)cc1)C(=O)N[C@@H](CC(C)C)C(=O)N[C@@H](CCCCNC(C)C)C(=O)N1CCC[C@H]1C(=O)N[C@H](C)C(N)=O [Degarelix, D-Alaninamide, N-acetyl-3-(2-naphthalenyl)-D-alanyl-4-chloro-D-phenylalanyl-3-(3-pyridinyl)-D-alanyl-L-seryl-4-[[[(4S)-hexahydro-2,6-dioxo-4-pyrimidinyl]carbonyl]amino]-L phenylalanyl-4-[(aminocarbonyl)amino]-D-phenylalanyl-L leucyl-N6-(1-methylethyl)-L-lysyl-L-prolyl] (Ac-[d2Nal][dPhe(4-Cl)][d3Pal]S[Phe(4-NH2)](Dihydroorotyl(S))[dPhe(4-NHCONH2)]L[Lys(iPr)]P[dA]-NH2)
Degarelix 240/160 mg
  AEs leading to discontinuation, % of patients: 9%
  AEs leading to discontinuation, E events: 19
  AEs leading to discontinuation, N patients: 19
  Alanine aminotransferase increased, % of patients: ( 8%)
  All AEs, E = number of adverse events: 941
  All AEs, N = number of patients: 167
  Arthralgia, % of patients: ( 3%)
  Aspartate aminotransferase increased, % of patients: ( 5%)
  Back pain, % of patients: ( 6%)
  Blood & lymphatic system disorders, % of patients: ( 5%)
  Cardiac disorders, % of patients: ( 9%)
  Chills, % of patients: ( 3%)
  Constipation, % of patients: ( 3%)
  Deaths (Grade 5), % of patients: 2%
  Deaths (Grade 5), E events: 6
  Deaths (Grade 5), N patients: 5
  Ear & labyrinth disorders, % of patients: ( 1%)
  Endocrine disorders, % of patients: (<1%)
  Eye disorders, % of patients: ( 2%)
  Fatigue, % of patients: ( 6%)
  Gastrointestinal disorders, % of patients: (16%)
  General disorders & administration site conditions, % of patients: (50%)
  Hepatobiliary disorders, % of patients: (<1%)
  Hot flush, % of patients: (26%)
  Hypercholesterolaemia, % of patients: ( 6%)
  Hypertension, % of patients: ( 7%)
  Immune system disorders, % of patients: (<1%)
  Infections & infestations, % of patients: (19%)
  Injection site erythema, % of patients: (24%)
  Injection site induration, % of patients: ( 5%)
  Injection site nodule, % of patients: ( 6%)
  Injection site pain, % of patients: (30%)
  Injection site swelling, % of patients: ( 7%)
  Injury, poisoning & procedural complications, % of patients: ( 5%)
  Investigations, % of patients: (29%)
  Metabolism & nutrition disorders, % of patients: (13%)
  Musculoskeletal & connective tissue disorders, % of patients: (18%)
  Nausea, % of patients: ( 5%)
  Neoplasms benign, malignant & unspecified, % of patients: ( 6%)
  Nervous system disorders, % of patients: (13%)
  Psychiatric disorders, % of patients: ( 8%)
  Renal & urinary disorders, % of patients: (13%)
  Reproductive system & breast disorders, % of patients: ( 6%)
  Respiratory, thoracic & mediastinal disorders, % of patients: ( 8%)
  Serious AEs, % of patients: 12%
  Serious AEs, E events: 41
  Serious AEs, N patients: 24
  Skin & subcutaneous tissue disorders, % of patients: (10%)
  Surgical & medical procedures, % of patients: (<1%)
  Urinary tract infection, % of patients: ( 1%)
  Vascular disorders, % of patients: (32%)
  Weight increased, % of patients: (11%)
[1]
  Hot flush, % of patients: 26%
  Treatment-emergent adverse events (all AEs), % of patients: 83%
Degarelix Total (pooled)
  Injection site erythema, % of patients: (21%)
  Injection site induration, % of patients: ( 5%)
  Injection site nodule, % of patients: ( 5%)
  Injection site swelling, % of patients: ( 7%)
  Surgical & medical procedures, % of patients: (<1%)
[2]
  ADRs, % of patients: 58%
  ADRs, E events: 922
  ADRs, N patients: 238
  AEs leading to discontinuation, % of patients: 8%
  AEs leading to discontinuation, E events: 34
  AEs leading to discontinuation, N patients: 34
  Alanine aminotransferase increased, % of patients: ( 9%)
  All AEs, E = number of adverse events: 1878
  All AEs, N = number of patients: 330
  Aspartate aminotransferase increased, % of patients: ( 5%)
  Back pain, % of patients: ( 6%)
  Cardiac disorders, % of patients: ( 9%)
  Chills, % of patients: ( 4%)
  Constipation, % of patients: ( 4%)
  Deaths (Grade 5), % of patients: 2%
  Deaths (Grade 5), E events: 11
  Deaths (Grade 5), N patients: 10
  Ear & labyrinth disorders, % of patients: ( 2%)
  Endocrine disorders, % of patients: ( 1%)
  Eye disorders, % of patients: ( 2%)
  Fatigue, % of patients: ( 5%)
  Gastrointestinal disorders, % of patients: (17%)
  General disorders & administration site conditions, % of patients: (47%)
  Hepatobiliary disorders, % of patients: (<1%)
  Hot flush, % of patients: (26%)
  Hypercholesterolaemia, % of patients: ( 5%)
  Hypertension, % of patients: ( 6%)
  Immune system disorders, % of patients: (<1%)
  Infections & infestations, % of patients: (20%)
  Injection site pain, % of patients: (29%)
  Injury, poisoning & procedural complications, % of patients: ( 5%)
  Metabolism & nutrition disorders, % of patients: (10%)
  Nausea, % of patients: ( 5%)
  Neoplasms benign, malignant & unspecified, % of patients: ( 5%)
  Nervous system disorders, % of patients: (12%)
  Psychiatric disorders, % of patients: ( 8%)
  Renal & urinary disorders, % of patients: (13%)
  Respiratory, thoracic & mediastinal disorders, % of patients: (10%)
  Serious AEs, % of patients: 11%
  Serious AEs, E events: 67
  Serious AEs, N patients: 45
  Skin & subcutaneous tissue disorders, % of patients: (10%)
  Vascular disorders, % of patients: (33%)
  Weight increased, % of patients: (10%)
[3]
  Arthralgia, % of patients: 4% and 4.2%
  Back pain, % of patients: 6%
  Cardiac disorders, % of patients: 9%
  Gastrointestinal disorders, % of patients: 17%
  General disorders & administration site conditions, % of patients: 47%
  Infections & infestations, % of patients: 20%
  Injection site pain, % of patients: 29%
  Investigations, % of patients: 27%
  Musculoskeletal & connective tissue disorders, % of patients: 17%
  Renal & urinary disorders, % of patients: 13%
  Reproductive system & breast disorders, % of patients: 5%
  Treatment-emergent adverse events (all AEs), % of patients: 81%
  Urinary tract infection, % of patients: 3%
  Vascular disorders, % of patients: 33%
Degarelix combined, LUPRON DEPOT 7.5 mg
  Myocardial Infarction (PT), % of patients: 0.5%
Degarelix pooled
  Deep vein thrombosis, N patients: 0
  Libido decreased, N patients: 0
[4]
  Cardiac murmur, % of patients: 0%
  Chest pain, % of patients: (<1%)*
  Cystitis noninfective, % of patients: 0%
  Deep vein thrombosis, % of patients: 0%
  Erectile dysfunction, % of patients: (1%)*
  Libido decreased, % of patients: 0%
  Musculoskeletal stiffness, % of patients: 0%
  Myocardial ischaemia, % of patients: (<1%)*
  Oedema peripheral, % of patients: (2%)*
  Urinary retention, % of patients: (1%)*
[5]
  Chest pain, % of patients: 0.5%
  Erectile dysfunction, % of patients: 1% and 1.5%
  Oedema peripheral, % of patients: 2%
  Urinary retention, % of patients: 1.2%
Degarelix s.c., 12 months
  discontinuations due to injection site adverse events: < 1%
In vivo
  immediate onset hypersensitivity reactions: no immediate onset hypersensitivity reactions
Pooled degarelix
  ADRs: general disorders and administration site conditions including injection-site reactions, % of patients: 42%
  Gynaecomastia, prostatitis or testicular atrophy (each), % of patients: 2%
  Hyperhidrosis, % of patients: < 1%
  Night sweats, % of patients: 1%
  Pelvic pain, % of patients: < 1%
  Sweating disorders, % of patients: approximately 1%
  Testicular pain, % of patients: < 1%
  incidence of all other injection site preferred terms: ≤ 0.5 per 100 injections
  incidence of injection site erythema: 1.9 per 100 injections
  incidence of injection site pain: 2.9 per 100 injections
  incidence of treatment-emergent injection site reactions: 4.4 per 100 injections
  injection site reactions which led to withdrawal, % of patients: 1.2%
  patients with SAEs that led to withdrawal, number: 17
[6]
  Hot flushes reported as ADR, % of patients: 25%
  SAEs: cardiac disorders, % of patients: 2%
  SAEs: renal and urinary disorders, % of patients: 2%
